pIC50: −log10 of the molar value. Like-named read-outs stand apart in the source and are kept apart here.
Columns and labels:
[1] = target: PAK6 (Homo sapiens, UniProt Q9NQU5)
Experimental: (§1) This was completed utilizing one of two assays depending on the kinase being examined.
(§2) A solution of IMAP binding reagent (IMAP Screening Express kit; Molecular Devices) (60 μL) was added to each well and incubated for 30 minutes.
(§3) A solution of termination buffer (QuickScout Screening assist MSA; Carna Biosciences) (60 μL) was added to each well. The entire reaction mixture was then applied to a LabChip3000 system (Caliper Life Science) and the product and substrate peptide peaks were separated and quantified.
(§4) The assay utilized was identical to that of the single point inhibitory activity determination (MSA) but run in dose response. […] A solution of termination buffer (QuickScout Screening assist MSA; Carna Biosciences) (60 μL) was added to each well. The entire reaction mixture was then applied to a LabChip3000 system (Caliper Life Science) and the product and substrate peptide peaks were separated and quantified.

[2] = target: PDGFRβ (Homo sapiens, UniProt P09619)
Experimental: as §1, §2, §3, §4

[3] = target: CLK1 (Homo sapiens, UniProt P49759); assay: Carna kinase panel; type: biochemical
Experimental: as §1, §2, §3

[4] = target: DYRK1B (Homo sapiens, UniProt Q9Y463)
Experimental: as §1, §2, §3, §4

[5] = target: RON (Homo sapiens, UniProt Q04912)
Experimental: as §1, §2, §3, §4

[6] = target: LOK (Homo sapiens, UniProt O94804)
Experimental: as §1, §2, §3

[7] = target: CK1γ2 (Homo sapiens, UniProt P78368)
Experimental: as §1, §2, §3, §4

[8] = target: AurA/TPX2 (Homo sapiens, UniProt O14965)
Chain of AurA/TPX2 (O14965 whole entry): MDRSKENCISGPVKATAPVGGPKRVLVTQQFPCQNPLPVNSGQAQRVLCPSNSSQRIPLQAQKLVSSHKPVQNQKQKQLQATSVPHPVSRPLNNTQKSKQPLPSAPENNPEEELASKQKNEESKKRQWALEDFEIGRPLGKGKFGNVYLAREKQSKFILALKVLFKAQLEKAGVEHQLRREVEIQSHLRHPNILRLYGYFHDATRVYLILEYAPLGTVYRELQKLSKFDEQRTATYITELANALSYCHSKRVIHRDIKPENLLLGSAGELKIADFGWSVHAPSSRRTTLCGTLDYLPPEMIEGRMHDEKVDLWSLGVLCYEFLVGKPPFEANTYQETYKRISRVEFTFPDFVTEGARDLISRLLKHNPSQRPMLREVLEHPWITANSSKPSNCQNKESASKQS
Chain of AurA/TPX2 (Q9ULW0 1-43 partner limits assumed): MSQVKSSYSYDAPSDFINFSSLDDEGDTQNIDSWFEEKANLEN
Experimental: as §1, §2, §3, §4

[9] = target: MARK4 (Homo sapiens, UniProt Q96L34)
Experimental: as §1, §2, §3, §4

[10] = target: QIK (Homo sapiens, UniProt Q9H0K1)
Experimental: as §1, §2, §3, §4

[11] = target: FGFR4(V550L) (Homo sapiens, UniProt P22455, V550L)
Experimental: as §1, §2, §3, §4

[12] = target: ITK (Homo sapiens, UniProt Q08881)
Experimental: as §1, §2, §3, §4

[13] = target: TYRO3 (Homo sapiens, UniProt Q06418)
Experimental: as §1, §2, §3

[14] = target: HCK (Homo sapiens, UniProt P08631)
Experimental: as §1, §2, §3

[15] = target: LATS2 (Homo sapiens, UniProt Q9NRM7)
Experimental: as §1, §2, §3, §4

[16] = target: PKACγ (Homo sapiens, UniProt P22612)
Experimental: as §1, §2, §3, §4

[17] = target: NEK4 (Homo sapiens, UniProt P51957)
Experimental: as §1, §2, §3, §4

[18] = target: p70S6Kβ (Homo sapiens, UniProt Q9UBS0)
Experimental: as §1, §2, §3, §4

[19] = target: MLK2_Cascade (Homo sapiens, UniProt Q02779)
Experimental: as §1, §2, §3, §4

[20] = target: CK1δ (Homo sapiens, UniProt P48730)
Chain of CK1δ (P48730 whole entry): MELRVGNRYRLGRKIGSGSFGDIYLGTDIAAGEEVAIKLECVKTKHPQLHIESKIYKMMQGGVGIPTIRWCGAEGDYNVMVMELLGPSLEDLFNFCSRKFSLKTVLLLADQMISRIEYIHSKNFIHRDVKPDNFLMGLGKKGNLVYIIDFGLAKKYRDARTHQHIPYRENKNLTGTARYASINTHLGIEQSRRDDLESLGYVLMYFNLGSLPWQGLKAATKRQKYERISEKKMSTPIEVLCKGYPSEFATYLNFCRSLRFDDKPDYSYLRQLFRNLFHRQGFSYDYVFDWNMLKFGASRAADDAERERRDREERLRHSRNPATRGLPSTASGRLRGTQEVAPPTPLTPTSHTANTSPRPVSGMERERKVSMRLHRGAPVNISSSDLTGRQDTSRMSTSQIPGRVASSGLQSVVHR

[21] = target: EPHB3 (Homo sapiens, UniProt P54753)
Experimental: as §1, §2, §3, §4

[22] = target: DYRK2 (Homo sapiens, UniProt Q92630)
Experimental: as §1, §2, §3, §4

[23] = target: PDGFRα (Homo sapiens, UniProt P16234)
Experimental: as §1, §2, §3, §4

[24] = system: MAP3K2_Cascade
Experimental: as §1, §2, §3, §4

[25] = target: MAP2K4_Cascade (Homo sapiens, UniProt P45985)
Experimental: as §1, §2, §3, §4

[26] = target: MAP3K3_Cascade (Homo sapiens, UniProt Q99759)
Experimental: as §1, §3
(§5) The assay utilized was identical to that of the single point inhibitory activity determination (MSA) but run in dose response.

[27] = target: PKCα (Homo sapiens, UniProt P17252)
Experimental: as §1, §2, §3, §4

[28] = target: HGK (Homo sapiens, UniProt O95819)
Chain of HGK (O95819 whole entry): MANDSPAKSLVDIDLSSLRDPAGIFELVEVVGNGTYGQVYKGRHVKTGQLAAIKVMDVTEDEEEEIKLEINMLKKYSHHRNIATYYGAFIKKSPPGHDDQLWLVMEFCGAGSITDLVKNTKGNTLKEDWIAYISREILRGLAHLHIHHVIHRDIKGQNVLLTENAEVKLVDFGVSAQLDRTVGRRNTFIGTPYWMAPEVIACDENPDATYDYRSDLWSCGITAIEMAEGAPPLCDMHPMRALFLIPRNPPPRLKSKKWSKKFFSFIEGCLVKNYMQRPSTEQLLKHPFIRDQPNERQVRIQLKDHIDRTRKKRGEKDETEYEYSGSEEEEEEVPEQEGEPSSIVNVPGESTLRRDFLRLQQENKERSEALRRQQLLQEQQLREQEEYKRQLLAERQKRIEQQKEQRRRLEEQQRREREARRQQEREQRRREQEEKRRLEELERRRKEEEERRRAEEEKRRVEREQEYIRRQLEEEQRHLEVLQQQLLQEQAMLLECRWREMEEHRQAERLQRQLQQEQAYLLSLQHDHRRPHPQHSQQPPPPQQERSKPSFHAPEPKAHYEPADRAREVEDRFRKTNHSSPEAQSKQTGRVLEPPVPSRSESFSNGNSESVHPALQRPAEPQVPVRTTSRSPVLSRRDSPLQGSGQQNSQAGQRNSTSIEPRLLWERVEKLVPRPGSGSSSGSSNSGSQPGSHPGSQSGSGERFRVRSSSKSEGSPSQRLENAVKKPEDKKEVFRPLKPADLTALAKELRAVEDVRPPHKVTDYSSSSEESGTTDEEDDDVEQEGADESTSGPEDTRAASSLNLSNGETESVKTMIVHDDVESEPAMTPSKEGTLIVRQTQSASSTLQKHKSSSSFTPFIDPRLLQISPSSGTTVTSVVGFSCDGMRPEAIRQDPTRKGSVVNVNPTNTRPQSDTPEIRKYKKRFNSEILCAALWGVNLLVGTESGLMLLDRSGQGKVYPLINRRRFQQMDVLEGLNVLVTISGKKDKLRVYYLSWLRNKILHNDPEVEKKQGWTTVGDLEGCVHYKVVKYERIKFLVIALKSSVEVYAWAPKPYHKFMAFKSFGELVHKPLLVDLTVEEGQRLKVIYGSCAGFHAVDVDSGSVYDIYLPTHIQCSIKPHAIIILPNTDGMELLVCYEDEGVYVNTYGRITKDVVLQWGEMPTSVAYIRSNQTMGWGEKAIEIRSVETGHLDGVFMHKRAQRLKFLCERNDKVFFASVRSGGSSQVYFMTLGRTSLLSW
Experimental: as §2, §3, §4

[29] = target: JAK1 (Homo sapiens, UniProt P23458)
Experimental: as §1, §2, §3, §4

[30] = target: ROS (Homo sapiens, UniProt P08922)
Experimental: as §1, §2, §3, §4

[31] = target: NDR2 (Homo sapiens, UniProt Q9Y2H1)
Experimental: as §1, §2, §3, §4

[32] = target: EPHA7 (Homo sapiens, UniProt Q15375)
Chain of EPHA7 (Q15375 28-998): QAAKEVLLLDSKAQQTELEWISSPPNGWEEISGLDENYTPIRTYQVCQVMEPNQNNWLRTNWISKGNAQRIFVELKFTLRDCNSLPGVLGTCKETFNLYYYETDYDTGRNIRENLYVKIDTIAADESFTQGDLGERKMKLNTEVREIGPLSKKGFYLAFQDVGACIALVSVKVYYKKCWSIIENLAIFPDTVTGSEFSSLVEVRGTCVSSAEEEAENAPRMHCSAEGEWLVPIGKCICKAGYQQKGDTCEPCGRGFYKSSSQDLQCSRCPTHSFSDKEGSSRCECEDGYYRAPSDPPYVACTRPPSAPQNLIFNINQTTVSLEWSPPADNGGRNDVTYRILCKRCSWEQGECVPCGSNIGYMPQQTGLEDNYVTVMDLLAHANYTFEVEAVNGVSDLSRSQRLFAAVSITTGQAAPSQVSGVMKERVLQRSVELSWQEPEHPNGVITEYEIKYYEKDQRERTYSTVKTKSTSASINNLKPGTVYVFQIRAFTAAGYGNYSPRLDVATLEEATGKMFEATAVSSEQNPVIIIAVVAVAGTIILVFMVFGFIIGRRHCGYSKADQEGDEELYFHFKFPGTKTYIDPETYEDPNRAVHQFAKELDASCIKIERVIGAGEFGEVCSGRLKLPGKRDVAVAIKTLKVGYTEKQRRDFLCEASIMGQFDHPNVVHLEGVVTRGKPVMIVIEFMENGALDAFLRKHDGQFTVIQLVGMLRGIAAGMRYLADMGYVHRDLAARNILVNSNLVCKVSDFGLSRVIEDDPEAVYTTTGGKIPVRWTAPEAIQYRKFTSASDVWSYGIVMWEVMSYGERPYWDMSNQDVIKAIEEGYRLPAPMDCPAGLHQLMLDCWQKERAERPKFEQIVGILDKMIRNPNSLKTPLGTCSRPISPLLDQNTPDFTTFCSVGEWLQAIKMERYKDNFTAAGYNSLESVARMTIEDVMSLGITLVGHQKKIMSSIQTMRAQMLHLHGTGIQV
Experimental: as §1, §2, §3, §4

[33] = target: MUSK (Homo sapiens, UniProt O15146)
Experimental: as §1, §2, §3, §4

[34] = target: DYRK3 (Homo sapiens, UniProt O43781)
Chain of DYRK3 (O43781 whole entry): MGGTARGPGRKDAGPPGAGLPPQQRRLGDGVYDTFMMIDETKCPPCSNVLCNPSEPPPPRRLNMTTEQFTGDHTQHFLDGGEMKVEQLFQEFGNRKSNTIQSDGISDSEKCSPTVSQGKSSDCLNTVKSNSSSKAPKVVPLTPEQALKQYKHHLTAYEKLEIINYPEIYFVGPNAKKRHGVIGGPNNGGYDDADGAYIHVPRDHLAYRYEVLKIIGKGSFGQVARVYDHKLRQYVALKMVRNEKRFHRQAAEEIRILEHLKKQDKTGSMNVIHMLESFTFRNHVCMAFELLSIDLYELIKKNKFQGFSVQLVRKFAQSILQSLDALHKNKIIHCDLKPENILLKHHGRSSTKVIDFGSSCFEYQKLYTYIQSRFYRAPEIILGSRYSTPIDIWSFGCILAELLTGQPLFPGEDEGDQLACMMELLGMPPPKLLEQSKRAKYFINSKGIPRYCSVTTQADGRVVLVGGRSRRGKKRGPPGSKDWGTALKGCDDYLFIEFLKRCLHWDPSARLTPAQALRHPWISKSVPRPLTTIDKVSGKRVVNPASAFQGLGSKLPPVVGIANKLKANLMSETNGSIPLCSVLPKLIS
Experimental: as §1, §2, §3, §4

[35] = target: PYK2 (Homo sapiens, UniProt Q14289)
Experimental: as §1, §2, §3

[36] = target: EPHB4 (Homo sapiens, UniProt P54760)
Experimental: as §1, §2, §3, §4

[37] = target: AKT1 (Homo sapiens, UniProt P31749)
Experimental: as §1, §2, §3, §4

[38] = target: CDK5/p25 (Homo sapiens, UniProt Q00535)
Chain of CDK5/p25 (Q00535 whole entry, species assumed): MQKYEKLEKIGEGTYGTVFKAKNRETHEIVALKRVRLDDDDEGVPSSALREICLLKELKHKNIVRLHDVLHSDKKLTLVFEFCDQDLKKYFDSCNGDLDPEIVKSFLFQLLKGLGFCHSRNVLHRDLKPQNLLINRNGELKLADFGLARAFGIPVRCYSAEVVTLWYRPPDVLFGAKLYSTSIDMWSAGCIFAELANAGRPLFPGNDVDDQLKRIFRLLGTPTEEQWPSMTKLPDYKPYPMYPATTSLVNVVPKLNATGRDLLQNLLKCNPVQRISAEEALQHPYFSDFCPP
Chain of CDK5/p25 (Q15078 99-307 partner limits assumed, species assumed): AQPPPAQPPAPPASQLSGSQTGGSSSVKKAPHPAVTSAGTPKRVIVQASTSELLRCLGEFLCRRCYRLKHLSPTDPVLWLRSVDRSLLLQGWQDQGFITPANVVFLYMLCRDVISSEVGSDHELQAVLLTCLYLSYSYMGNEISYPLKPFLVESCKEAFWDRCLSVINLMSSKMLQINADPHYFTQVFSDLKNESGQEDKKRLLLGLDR
Experimental: as §1, §2, §3, §4

[39] = target: WNK1 (Homo sapiens, UniProt Q9H4A3)
Text: as §1, §5

[40] = target: PAK4 (Homo sapiens, UniProt O96013)
Experimental: as §1, §2, §3

[41] = target: PKCζ (Homo sapiens, UniProt Q05513)
Chain of PKCζ (Q05513 whole entry): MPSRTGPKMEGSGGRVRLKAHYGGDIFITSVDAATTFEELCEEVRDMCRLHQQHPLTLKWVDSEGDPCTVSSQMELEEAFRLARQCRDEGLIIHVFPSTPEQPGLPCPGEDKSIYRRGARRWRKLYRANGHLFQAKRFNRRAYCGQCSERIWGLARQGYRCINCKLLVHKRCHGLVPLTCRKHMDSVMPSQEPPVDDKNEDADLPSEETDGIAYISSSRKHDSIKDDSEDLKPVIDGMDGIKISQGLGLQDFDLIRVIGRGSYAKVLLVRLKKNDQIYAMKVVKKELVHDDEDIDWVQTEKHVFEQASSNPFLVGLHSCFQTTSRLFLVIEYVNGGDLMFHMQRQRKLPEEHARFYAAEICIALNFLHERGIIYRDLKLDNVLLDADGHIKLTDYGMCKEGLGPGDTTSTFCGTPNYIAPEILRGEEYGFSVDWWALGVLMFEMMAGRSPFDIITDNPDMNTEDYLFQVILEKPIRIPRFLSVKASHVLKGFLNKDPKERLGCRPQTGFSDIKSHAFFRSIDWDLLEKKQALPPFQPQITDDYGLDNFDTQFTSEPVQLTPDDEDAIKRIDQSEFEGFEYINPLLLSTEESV
Experimental: as §1, §2, §3, §4

In the case of `CC[C@@]1(c2ccccc2)C2=C(CC(C)(C)CC2=O)Nc2n[nH]cc21` [BRD0705], the “% Inhibition at 10 μM” value [1] was −10.7%, the “% Inhibition at 10 μM” value [2] was 0.3% and the “% Inhibition at 10 μM” value [3] was −7.1%. For the same compound, the “% Inhibition at 10 μM” value [4] was −6.1%, the “% Inhibition at 10 μM” value [5] was −3.8% and the “% Inhibition at 10 μM” value [6] was 9.6%. For the same compound, the “% Inhibition at 10 μM” value [7] was −11.8%, the “% Inhibition at 10 μM” value [8] was −5.3% and the “% Inhibition at 10 μM” value [9] was 2.0%. For the same compound, the “% Inhibition at 10 μM” value [10] was −6.4%, the “% Inhibition at 10 μM” value [11] was −0.4% and the “% Inhibition at 10 μM” value [12] was 0.3%. For the same compound, the “% Inhibition at 10 μM” value [13] was 3.8%, the “% Inhibition at 10 μM” value [14] was 1.1% and the “% Inhibition at 10 μM” value [15] was −11.9%. For the same compound, the “% Inhibition at 10 μM” value [16] was −3.6%, the “% Inhibition at 10 μM” value [17] was −5.1% and the “% Inhibition at 10 μM” value [18] was −2.1%. For the same compound, the “% Inhibition at 10 μM” value [19] was 2.1%, the “% Inhibition at 10 μM” value [20] was −3.9% and the “% Inhibition at 10 μM” value [21] was −1.3%. The “% Inhibition at 10 μM” value [22] was −3.0%, the “% Inhibition at 10 μM” value [23] was −0.8% and the “% Inhibition at 10 μM” value [24] was 1.0%. The “% Inhibition at 10 μM” value [25] was −3.0%, the “% Inhibition at 10 μM” value [26] was 5.6% and the “% Inhibition at 10 μM” value [27] was −0.5%. The “% Inhibition at 10 μM” value [28] was 14.9%, the “% Inhibition at 10 μM” value [29] was −1.3% and the “% Inhibition at 10 μM” value [30] was 31.3%. The “% Inhibition at 10 μM” value [31] was −9.9%, the “% Inhibition at 10 μM” value [32] was −5.3% and the “% Inhibition at 10 μM” value [33] was −0.6%. The “% Inhibition at 10 μM” value [34] was 7.7%, the “% Inhibition at 10 μM” value [35] was 3.5% and the “% Inhibition at 10 μM” value [36] was 14.7%. The “% Inhibition at 10 μM” value [37] was −8.3%, the “% Inhibition at 10 μM” value ([38]; CDK5/p25) was 52.0% and the pIC50 ([38]; read-out: IC50 CDK5/p25) was 5.04. The “% Inhibition at 10 μM” value [39] was −4.2%, the “% Inhibition at 10 μM” value [40] was 33.8% and the “% Inhibition at 10 μM” value [41] was −1.0%.

With `CC(C)(C)Cc1[nH]nc2c1[C@](C)(c1ccccc1)C1=C(CC(C)(C)CC1=O)N2` [BRD3731] the “% Inhibition 10 μM” value ([1]; 10 μM) was −46.8%, the “% Inhibition 10 μM” value ([2]; 10 μM) was 3.1% and the “% Inhibition 10 μM” value ([3]; 10 μM) was 3.1%. For the same compound, the “% Inhibition 10 μM” value ([4]; 10 μM) was 2.0%, the “% Inhibition 10 μM” value ([5]; 10 μM) was 2.3% and the “% Inhibition 10 μM” value ([6]; 10 μM) was −1.0%. For the same compound, the “% Inhibition 10 μM” value ([7]; 10 μM) was 3.6%, the “% Inhibition 10 μM” value ([8]; 10 μM) was 3.8% and the “% Inhibition 10 μM” value ([9]; 10 μM) was 22.7%. For the same compound, the “% Inhibition 10 μM” value ([10]; 10 μM) was −4.1%, the “% Inhibition 10 μM” value ([11]; 10 μM) was 2.9% and the “% Inhibition 10 μM” value ([12]; 10 μM) was 2.8%. For the same compound, the “% Inhibition 10 μM” value ([13]; 10 μM) was −3.5%, the “% Inhibition 10 μM” value ([14]; 10 μM) was 6.6% and the “% Inhibition 10 μM” value ([15]; 10 μM) was −3.0%. For the same compound, the “% Inhibition 10 μM” value ([16]; 10 μM) was 6.5%, the “% Inhibition 10 μM” value ([17]; 10 μM) was −4.8% and the “% Inhibition 10 μM” value ([18]; 10 μM) was 12.6%. For the same compound, the “% Inhibition 10 μM” value ([19]; 10 μM) was 0.3%, the “% Inhibition 10 μM” value ([20]; 10 μM) was 10.7% and the “% Inhibition 10 μM” value ([21]; 10 μM) was 0.1%. The “% Inhibition 10 μM” value ([22]; 10 μM) was 4.1%, the “% Inhibition 10 μM” value ([23]; 10 μM) was 6.7% and the “% Inhibition 10 μM” value ([24]; 10 μM) was −0.7%. The “% Inhibition 10 μM” value ([25]; 10 μM) was 7.6%, the “% Inhibition 10 μM” value ([26]; 10 μM) was 1.8% and the “% Inhibition 10 μM” value ([27]; 10 μM) was 8.1%. The “% Inhibition 10 μM” value ([28]; 10 μM) was −3.8%, the “% Inhibition 10 μM” value ([29]; 10 μM) was 3.7% and the “% Inhibition 10 μM” value ([30]; 10 μM) was 0.9%. The “% Inhibition 10 μM” value ([31]; 10 μM) was −3.2%, the “% Inhibition 10 μM” value ([32]; 10 μM) was −3.0% and the “% Inhibition 10 μM” value ([33]; 10 μM) was −7.9%. For the same compound, the “% Inhibition 10 μM” value ([34]; 10 μM) was 16.0%, the “% Inhibition 10 μM” value ([35]; 10 μM) was 5.3% and the “% Inhibition 10 μM” value ([36]; 10 μM) was 1.9%. For the same compound, the “% Inhibition 10 μM” value ([37]; 10 μM) was −1.1%, the pIC50 ([38]; CDK5/p25) was 5.05 and the “% Inhibition 10 μM” value ([38]; CDK5/p25, 10 μM) was 48.3%. The “Fold Selectivity” value ([38]; IC50 CDK5/p25 / IC50 GSK3β) was 331.0 fold, the “% Inhibition 10 μM” value ([39]; 10 μM) was −1.0% and the “% Inhibition 10 μM” value ([40]; 10 μM) was 0.6%. For the same compound, the “% Inhibition 10 μM” value ([41]; 10 μM) was 5.0%.

From patent US20160375006A1, “USES OF PARALOG-SELECTIVE INHIBITORS OF GSK3 KINASES” (priority 2012, published 2016)
